Data: patent US4524146A, “Certain -2-heterocycle substituted pyrazoloquinolines” (Ciba-Geigy Corporation, priority 1982, dated 1985)

Legend:
benzodiazepine receptor [1] = assay: in vitro benzodiazepine receptor binding assay (inhibition of specific binding of 2 nM tritiated diazepam); settings: membranes from rat fore-brain, 0°-5°, 30 minutes, pH7.5
Description: The benzodiazepine receptor binding properties indicative of the nervous system regulatory activity of said new compounds are determined in the receptor binding assay in vitro, e.g. as described in Nature 266, 732 (1977) or Proc. Nat. Acad. Sci. USA 74, 3805 (1977). Diazepam binds specifically and with high affinity to crude synaptosomal membrane preparations from rat fore-brain. This binding is inhibited by other anxiolytic compounds. When tritiated diazepem is used, the interaction of other drugs with said receptor can be readily assessed thus: membranes from rat fore-brain are incubated at 0°-5° for 30 minutes with 2 nM tritiated diazepam and various concentrations of the test substance in a buffer medium maintained at pH7.5. Solutions of the various concentrations of test substances are prepared by dilution of a 4.2 mM stock solution in dimethylacetamide-ethanol (1:10) with 50 mM pH7.5 Tris-HCl buffer. The membranes, containing the receptors with various amounts of tritiated diazepam, are filtered onto glass fiber filters, which are then analyzed in a liquid scintillation counter. The concentration of the compounds of this invention, required to inhibit the specific binding of 2 nM of tritiated diazepam by 50%, i.e. the IC50, is determined graphically.

benzodiazepine receptor [2] = assay: in vivo benzodiazepine receptor binding (3H-flunitrazepam); parameters: species or system mice or rats; settings: dose of about 30 mg/kg i.p.
Description: In vivo benzodiazepine receptor binding is determined essentially as described in Eur. J. Pharmacol. 48, 213 (1978) and Nature 275, 551 (1978).
Test compounds in a corn starch vehicle are administered orally or intraperitioneally to mice or rats. Thirty minutes later, 3H-flunitrazepam(2 nmoles/Kg in saline) is injected into the tail vein, and the animals are sacrificed 20 minutes after injection of the flunitrazepam. The brains are then assayed by determining radioactivity in a liquid scintillation counter for binding of the radioligand to the receptors. A decrease in the binding of 3H-flimotrazepam in the drug-treated animals (as compared with the binding observed in animals treated with vehicle alone) is indicative of benzodiazepine receptor binding by the test compound.

Compound	IC50 (benzodiazepine receptor [1])	inhibition of flunitrazepam binding in vivo (benzodiazepine receptor [2])
O=c1c2c[nH]c3ccccc3c-2nn1-c1nccs1 [Example 4, 2-(2-thiazolyl)-pyrazolo[4,3-c]quinolin-3(5H)-one]	~0.3 nM	inhibits flunitrazepam binding in vivo
O=c1c2c[nH]c3ccc(F)cc3c-2nn1-c1ncccn1 [Example 2, 8-fluoro-2-(2-pyrimidyl)-pyrazolo[4,3-c]quinolin-3(5H)-one]	~2 nM	–
O=c1c2c[nH]c3ccccc3c-2nn1-c1ncccn1 [Example 1, 2-(2-pyrimidyl)-pyrazolo[4,3-c]quinolin-3(5H)-one]	~6 nM	–
